Test results taken from patent US20030191347A1 (priority 2002, published 2003).

Test: dissolution in water
Type: physicochemical
Conditions: stated in words only, no figure

SMILES: COc1ccc(C(CN(C)C)C2(O)CCCCC2)cc1 (stereo not shown) [venlafaxine base, 1-[2-(dimethylamino)-1-(4-methoxyphenyl)ethyl]cyclohexanol]
- dissolution in water: slow
